From ChEMBL document CHEMBL1201862, “PubChem BioAssay data set” (2004)
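All cell lines were grown in 96-well plates and treated with compound for 48 hours. GI50 = concentration required for 50% inhibition of growth.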 The source made the active and inactive calls. No stated cut-off is given here; in the data, active = GI50 up to about 1.1 µM and inactive = higher.

Tests used:
Assay in all cases: DTP human tumour cell line panel, 48 h
HOP-62 = tested on: HOP-62
RXF 393 = tested on: RXF 393
SF-539 = tested on: SF-539
U-251 = tested on: U-251
HCC 2998 = tested on: HCC 2998
SR = tested on: SR
ACHN = tested on: ACHN
HOP-18 = tested on: HOP-18
HT-29 = tested on: HT-29
A549 = tested on: A549
COLO 205 = tested on: COLO 205
SW-620 = tested on: SW-620
Malme-3M = tested on: Malme-3M
KM12 = tested on: KM12
NCI-H460 = tested on: NCI-H460
SN12C = tested on: SN12C
SF-268 = tested on: SF-268
DMS-273 = tested on: DMS-273
SK-OV-3 = tested on: SK-OV-3
HL-60 = tested on: HL-60
HCT-116 = tested on: HCT-116
UACC-257 = tested on: UACC-257
SK-MEL-2 = tested on: SK-MEL-2
NCI-H522 = tested on: NCI-H522
786-0 = tested on: 786-0
DLD-1 = tested on: DLD-1
RXF 631 = tested on: RXF 631
UACC-62 = tested on: UACC-62
A498 = tested on: A498
M19-MEL = tested on: M19-MEL
SF-295 = tested on: SF-295
LOX IMVI = tested on: LOX IMVI
K562 = tested on: K562
LXFL 529 = tested on: LXFL 529
HCT-15 = tested on: HCT-15
SK-MEL-28 = tested on: SK-MEL-28
SNB-78 = tested on: SNB-78
TK-10 = tested on: TK-10
IGROV-1 = tested on: IGROV-1
MOLT-4 = tested on: MOLT-4
NCI-H23 = tested on: NCI-H23
OVCAR-3 = tested on: OVCAR-3
OVCAR-5 = tested on: OVCAR-5
EKVX = tested on: EKVX
SK-MEL-5 = tested on: SK-MEL-5
SNB-19 = tested on: SNB-19
UO-31 = tested on: UO-31
CAKI-1 = tested on: CAKI-1
OVCAR-8 = tested on: OVCAR-8
DMS-114 = tested on: DMS-114
SNB-75 = tested on: SNB-75
OVCAR-4 = tested on: OVCAR-4
RPMI-8226 = tested on: RPMI-8226
HOP-92 = tested on: HOP-92
CCRF-CEM = tested on: CCRF-CEM
NCI-H226 = tested on: NCI-H226
M14 = tested on: M14
KM-20L2 = tested on: KM-20L2
XF498 = tested on: XF498

Ic1cc2c(cc1C1SCCCS1)OCO2 was tested, and the GI50 (HOP-62) was > 100 µM (inactive), the GI50 (RXF 393) was > 100 µM (inactive) and the GI50 (SF-539) was > 100 µM (inactive). For the same compound, the GI50 (U-251) was > 100 µM (inactive), the GI50 (HCC 2998) was > 100 µM (inactive) and the GI50 (SR) was > 100 µM (inactive). For the same compound, the GI50 (ACHN) was > 100 µM (inactive), the GI50 (HOP-18) was > 100 µM (inactive) and the GI50 (HT-29) was > 100 µM (inactive). For the same compound, the GI50 (A549) was > 100 µM (inactive), the GI50 (COLO 205) was > 100 µM (inactive) and the GI50 (SW-620) was > 100 µM (inactive). For the same compound, the GI50 (Malme-3M) was > 100 µM (inactive), the GI50 (KM12) was > 100 µM (inactive) and the GI50 (NCI-H460) was > 100 µM (inactive). The GI50 (SN12C) was > 100 µM (inactive), the GI50 (SF-268) was > 100 µM (inactive) and the GI50 (DMS-273) was > 100 µM (inactive). For the same compound, the GI50 (SK-OV-3) was > 100 µM (inactive), the GI50 (HL-60) was > 100 µM (inactive) and the GI50 (HCT-116) was > 100 µM (inactive). The GI50 (UACC-257) was > 100 µM (inactive), the GI50 (SK-MEL-2) was > 100 µM (inactive) and the GI50 (NCI-H522) was > 100 µM (inactive). For the same compound, the GI50 (786-0) was > 100 µM (inactive), the GI50 (DLD-1) was > 100 µM (inactive) and the GI50 (RXF 631) was > 100 µM (inactive). The GI50 (UACC-62) was > 100 µM (inactive), the GI50 (A498) was > 100 µM (inactive) and the GI50 (M19-MEL) was > 100 µM (inactive). For the same compound, the GI50 (SF-295) was > 100 µM (inactive), the GI50 (LOX IMVI) was > 100 µM (inactive) and the GI50 (K562) was > 100 µM (inactive). For the same compound, the GI50 (LXFL 529) was > 100 µM (inactive), the GI50 (HCT-15) was over 100 µM and the GI50 (SK-MEL-28) was > 100 µM (inactive). The GI50 (SNB-78) was > 100 µM (inactive), the GI50 (TK-10) was > 100 µM (inactive) and the GI50 (IGROV-1) was > 100 µM (inactive). The GI50 (MOLT-4) was > 100 µM (inactive), the GI50 (NCI-H23) was 64.7 µM (inactive) and the GI50 (OVCAR-3) was > 100 µM (inactive). For the same compound, the GI50 (OVCAR-5) was > 100 µM (inactive), the GI50 (EKVX) was > 100 µM (inactive) and the GI50 (SK-MEL-5) was > 100 µM (inactive). For the same compound, the GI50 (SNB-19) was > 100 µM (inactive), the GI50 (UO-31) was > 100 µM (inactive) and the GI50 (CAKI-1) was > 100 µM (inactive). For the same compound, the GI50 (OVCAR-8) was > 100 µM (inactive), the GI50 (DMS-114) was > 100 µM (inactive) and the GI50 (SNB-75) was > 100 µM (inactive). For the same compound, the GI50 (OVCAR-4) was > 100 µM (inactive), the GI50 (RPMI-8226) was > 100 µM (inactive) and the GI50 (HOP-92) was > 100 µM (inactive). The GI50 (CCRF-CEM) was > 100 µM (inactive), the GI50 (NCI-H226) was > 100 µM (inactive) and the GI50 (M14) was > 100 µM (inactive). For the same compound, the GI50 (KM-20L2) was > 100 µM (inactive).
In the case of Cc1cc(NS(=O)(=O)c2ccc(NC(=O)c3cccc4cc5ccccc5nc34)cc2)no1, the GI50 (HOP-62) is reported as 27.6 µM (inactive), the GI50 (RXF 393) is reported as 14.8 µM (inactive) and the GI50 (SF-539) is reported as 11.6 µM (inactive). For the same compound, the GI50 (U-251) was 12.5 µM (inactive), the GI50 (ACHN) was 11.1 µM (inactive) and the GI50 (HT-29) was 30 µM (inactive). The GI50 (A549) was 22 µM (inactive), the GI50 (COLO 205) was 23.3 µM (inactive) and the GI50 (SW-620) was 25.3 µM (inactive). For the same compound, the GI50 (Malme-3M) was 14.8 µM (inactive), the GI50 (KM12) was 16.4 µM (inactive) and the GI50 (NCI-H460) was 18.3 µM (inactive). The GI50 (SN12C) was 18 µM (inactive), the GI50 (SF-268) was 12.9 µM (inactive) and the GI50 (DMS-273) was 13.8 µM (inactive). For the same compound, the GI50 (XF498) was 17 µM (inactive), the GI50 (SK-OV-3) was 39.6 µM (inactive) and the GI50 (HCT-116) was 6.7 µM (inactive). For the same compound, the GI50 (UACC-257) was 27.4 µM (inactive), the GI50 (SK-MEL-2) was 18.7 µM (inactive) and the GI50 (NCI-H522) was 15.5 µM (inactive). The GI50 (786-0) was 16.7 µM (inactive), the GI50 (DLD-1) was 19.9 µM (inactive) and the GI50 (RXF 631) was 17.7 µM (inactive). For the same compound, the GI50 (UACC-62) was 13.8 µM (inactive), the GI50 (A498) was 16.7 µM (inactive) and the GI50 (M19-MEL) was 16.6 µM (inactive). For the same compound, the GI50 (SF-295) was 19.9 µM (inactive), the GI50 (LOX IMVI) was > 10 µM (inactive) and the GI50 (K562) was 18.1 µM (inactive). The GI50 (LXFL 529) was 15.8 µM (inactive), the GI50 (HCT-15) was 14.7 µM and the GI50 (SK-MEL-28) was 8.36 µM (inactive). For the same compound, the GI50 (SNB-78) was 29.9 µM (inactive), the GI50 (TK-10) was 35.9 µM (inactive) and the GI50 (IGROV-1) was 15.8 µM (inactive). For the same compound, the GI50 (MOLT-4) was 17.1 µM (inactive), the GI50 (NCI-H23) was 17.2 µM (inactive) and the GI50 (OVCAR-3) was 22.3 µM (inactive). The GI50 (OVCAR-5) was 23.2 µM (inactive), the GI50 (EKVX) was 29.6 µM (inactive) and the GI50 (SK-MEL-5) was 15.6 µM (inactive). For the same compound, the GI50 (SNB-19) was 6.46 µM (inactive), the GI50 (UO-31) was 6.87 µM (inactive) and the GI50 (CAKI-1) was 21.9 µM (inactive). For the same compound, the GI50 (OVCAR-8) was 16.6 µM (inactive), the GI50 (DMS-114) was 18.3 µM (inactive) and the GI50 (SNB-75) was 17.6 µM (inactive). The GI50 (OVCAR-4) was 18.3 µM (inactive), the GI50 (RPMI-8226) was 16.1 µM (inactive) and the GI50 (CCRF-CEM) was 16 µM (inactive). The GI50 (NCI-H226) was 0.191 µM (active), the GI50 (M14) was 23.5 µM (inactive) and the GI50 (KM-20L2) was 27.7 µM (inactive).
